Active and inactive are the calls of the source. The calls are words filed in the database; no cut-off is given here.
Columns and labels:
[1] = target: T1, Cathepsin B (Homo sapiens, UniProt P07858); test: Inhibition of human cathepsin B at 20 uM using Cbz-Phe-Arg-AMC as substrate relative to control
[2] = target: T2, Falcipain 2 (Plasmodium falciparum) (UniProt Q9N6S8); test: Inhibition of Plasmodium falciparum falcipain-2 at 20 uM using Cbz-Phe-Arg-AMC as substrate measured for 15 mins by spectrofluorimetric method relative to control
T2 sequence (whole entry): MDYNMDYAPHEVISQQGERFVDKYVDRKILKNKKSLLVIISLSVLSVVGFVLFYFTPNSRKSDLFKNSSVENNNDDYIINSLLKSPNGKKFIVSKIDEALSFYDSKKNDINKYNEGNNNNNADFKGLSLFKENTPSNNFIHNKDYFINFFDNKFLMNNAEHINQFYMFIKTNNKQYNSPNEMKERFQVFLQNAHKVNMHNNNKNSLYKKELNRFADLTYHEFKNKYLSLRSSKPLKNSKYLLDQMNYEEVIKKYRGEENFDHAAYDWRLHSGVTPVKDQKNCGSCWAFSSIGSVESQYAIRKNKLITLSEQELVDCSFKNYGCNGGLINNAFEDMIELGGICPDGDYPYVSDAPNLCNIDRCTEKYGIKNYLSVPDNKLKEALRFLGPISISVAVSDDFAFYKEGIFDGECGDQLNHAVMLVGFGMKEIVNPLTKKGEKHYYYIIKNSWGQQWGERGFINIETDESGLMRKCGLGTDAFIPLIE

[3] = target: T3, Procathepsin L (Homo sapiens, UniProt P07711); test: Inhibition of human cathepsin L at 20 uM using Cbz-Phe-Arg-AMC as substrate relative to control
Target sequence in this assay (P07711 114-333 limits assumed): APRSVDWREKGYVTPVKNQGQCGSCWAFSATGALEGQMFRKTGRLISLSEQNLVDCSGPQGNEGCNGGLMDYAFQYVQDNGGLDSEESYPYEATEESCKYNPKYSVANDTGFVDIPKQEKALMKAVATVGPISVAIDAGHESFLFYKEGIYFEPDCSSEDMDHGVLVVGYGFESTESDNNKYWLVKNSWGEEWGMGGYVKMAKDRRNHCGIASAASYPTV

[4] = target: Rhodesain (Trypanosoma brucei rhodesiense) (UniProt Q95PM0); test: Inhibition of Trypanosoma brucei rhodesiense rhodesain at 20 uM using Cbz-Phe-Arg-AMC as substrate measured for 30 mins by fluorescence method relative to control
Sequence of Rhodesain (Trypanosoma brucei rhodesiense) (Q95PM0 1-450): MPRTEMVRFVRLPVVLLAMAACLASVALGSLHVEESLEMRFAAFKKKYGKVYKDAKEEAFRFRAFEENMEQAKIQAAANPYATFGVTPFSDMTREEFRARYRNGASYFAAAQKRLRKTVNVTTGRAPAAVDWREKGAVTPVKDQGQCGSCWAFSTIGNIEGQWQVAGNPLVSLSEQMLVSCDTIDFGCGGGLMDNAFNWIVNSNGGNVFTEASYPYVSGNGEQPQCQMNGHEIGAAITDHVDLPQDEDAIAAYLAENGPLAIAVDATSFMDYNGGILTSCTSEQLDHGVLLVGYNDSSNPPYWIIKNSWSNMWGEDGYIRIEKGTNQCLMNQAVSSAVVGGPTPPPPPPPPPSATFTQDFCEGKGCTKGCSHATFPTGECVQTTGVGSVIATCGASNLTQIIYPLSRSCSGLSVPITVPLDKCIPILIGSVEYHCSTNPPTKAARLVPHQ

[5] = target: T3, Procathepsin L; test: Inhibition of human cathepsin L using Cbz-Phe-Arg-AMC as substrate
Target sequence in this assay (P07711 whole entry): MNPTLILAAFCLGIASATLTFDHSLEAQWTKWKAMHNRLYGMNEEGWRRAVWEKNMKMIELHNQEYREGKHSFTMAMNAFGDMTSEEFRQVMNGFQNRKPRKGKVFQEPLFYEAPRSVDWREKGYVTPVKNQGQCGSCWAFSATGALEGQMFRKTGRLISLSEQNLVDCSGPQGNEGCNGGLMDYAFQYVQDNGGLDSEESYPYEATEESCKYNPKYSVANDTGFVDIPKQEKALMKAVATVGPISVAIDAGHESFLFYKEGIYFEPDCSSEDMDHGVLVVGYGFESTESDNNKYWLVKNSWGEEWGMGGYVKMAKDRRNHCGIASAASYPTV

[6] = target: T3, Procathepsin L; test: Inhibition of human cathepsin L assessed as second order rate constant using Cbz-Phe-Arg-AMC as substrate
Target sequence in this assay (P07711 114-333 limits assumed): as the sequence (P07711 114-333 limits assumed) above

[7] = target: T2, Falcipain 2 (Plasmodium falciparum); test: Inhibition of Plasmodium falciparum falcipain-2 assessed as second-order rate constant using Cbz-Phe-Arg-AMC as substrate measured for 15 mins by spectrofluorimetric method
[8] = target: Cruzipain (Trypanosoma cruzi) (UniProt P25779); test: Inhibition of Trypanosoma cruzi cruzain assessed as second-order rate constant
Sequence of Cruzipain (Trypanosoma cruzi) (P25779 123-467 limits assumed): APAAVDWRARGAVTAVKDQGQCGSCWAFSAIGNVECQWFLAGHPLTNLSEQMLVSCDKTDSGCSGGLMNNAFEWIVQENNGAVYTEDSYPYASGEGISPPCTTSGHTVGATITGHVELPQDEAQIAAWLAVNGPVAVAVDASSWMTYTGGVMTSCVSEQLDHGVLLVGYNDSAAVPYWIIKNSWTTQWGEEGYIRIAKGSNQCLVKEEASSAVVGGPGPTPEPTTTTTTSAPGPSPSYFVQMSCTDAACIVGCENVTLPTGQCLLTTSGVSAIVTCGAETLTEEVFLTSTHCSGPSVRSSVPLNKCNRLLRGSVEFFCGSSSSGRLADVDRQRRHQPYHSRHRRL

[9] = target: T1, Cathepsin B; test: Inhibition of human cathepsin B assessed as second order rate constant using Cbz-Phe-Arg-AMC as substrate
[10] = target: Cruzipain (Trypanosoma cruzi) (UniProt P25779); test: Inhibition of Trypanosoma cruzi cruzain at 20 uM relative to control
[11] = target: T4, Falcipain 2 (Plasmodium falciparum, UniProt Q9N6S8); test: Inhibition of Plasmodium falciparum falcipain-2 using Cbz-Phe-Arg-AMC as substrate measured for 15 mins by spectrofluorimetric method
T4 sequence (Q9N6S8 whole entry): T2 sequence (whole entry)

[12] = target: Rhodesain (Trypanosoma brucei rhodesiense) (UniProt Q95PM0); test: Inhibition of Trypanosoma brucei rhodesiense rhodesain assessed as second-order rate constant using Cbz-Phe-Arg-AMC as substrate measured for 30 mins by fluorescence method
[13] = tested on: Trypanosoma cruzi; test: Antitrypanosomal activity against Trypanosoma cruzi Tulahuen strain C2C4 amastigote forms harboring LacZ infected in rat L6 cells after 96 hrs by CPRG/Nonidet reagent based photometric method; type: functional, organism-based; conditions: Tulahuen strain C2C4, L6, 96 h
[14] = target: Rhodesain (Trypanosoma brucei rhodesiense, UniProt Q95PM0); test: Inhibition of Trypanosoma brucei rhodesiense rhodesain using Cbz-Phe-Arg-AMC as substrate measured for 30 mins by fluorescence method
Sequence of Rhodesain (Q95PM0 whole entry): as the sequence (Q95PM0 1-450) above

[15] = target: T1, Cathepsin B; test: Inhibition of human cathepsin B using Cbz-Phe-Arg-AMC as substrate
[16] = target: Cruzipain (Trypanosoma cruzi, UniProt P25779); test: Inhibition of Trypanosoma cruzi cruzain
Sequence of Cruzipain (P25779 whole entry): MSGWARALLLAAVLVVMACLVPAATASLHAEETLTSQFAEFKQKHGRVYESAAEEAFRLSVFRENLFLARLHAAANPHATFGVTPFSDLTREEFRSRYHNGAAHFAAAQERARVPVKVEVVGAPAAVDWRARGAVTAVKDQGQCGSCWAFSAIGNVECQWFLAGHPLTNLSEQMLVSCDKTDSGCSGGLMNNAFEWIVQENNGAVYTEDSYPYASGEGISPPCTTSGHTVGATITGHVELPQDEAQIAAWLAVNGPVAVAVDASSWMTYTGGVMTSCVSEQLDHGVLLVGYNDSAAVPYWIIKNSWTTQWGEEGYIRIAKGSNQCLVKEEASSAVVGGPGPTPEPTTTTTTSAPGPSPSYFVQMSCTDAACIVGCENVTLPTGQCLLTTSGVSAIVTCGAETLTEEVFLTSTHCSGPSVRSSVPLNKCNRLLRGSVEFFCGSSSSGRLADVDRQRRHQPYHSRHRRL

[17] = tested on: Plasmodium falciparum; test: Antimalarial activity against erythrocytic stage of synchronized Plasmodium falciparum Dd2 after 48 hrs by Picogreen dye based fluorescence assay; type: functional, organism-based; conditions: Dd2, 48 h
[18] = Cytotoxicity against human HepG2 cells assessed as cell viability at 1 uM measured after 24 hrs by spectrophotometric method relative to control; type: cell-based; conditions: read-out: Activity
[19] = target: T2, Falcipain 2 (Plasmodium falciparum); test: Irreversible inhibition of Plasmodium falciparum falcipain-2 using Cbz-Phe-Arg-AMC as substrate pretreated for 30 mins followed by substrate addition and measured for 30 mins by dialysis method
[20] = target: Rhodesain (Trypanosoma brucei rhodesiense) (UniProt Q95PM0); test: Irreversible inhibition of Trypanosoma brucei rhodesiense rhodesain using Cbz-Phe-Arg-AMC as substrate pretreated for 30 mins followed by substrate addition and measured for 30 mins by dialysis method
[21] = target: Cruzipain (Trypanosoma cruzi) (UniProt P25779); test: Irreversible inhibition of Trypanosoma cruzi cruzain pretreated for 30 mins followed by substrate addition and measured for 30 mins by dialysis method
[22] = tested on: Leishmania donovani; test: Antileishmanial activity against Leishmania donovani MHOM/ET/67/L82 axenic amastigotes after 70 hrs by alamar blue staining based fluorescence assay; type: functional, organism-based; conditions: MHOM/ET/67/L82, 70 h
[23] = tested on: Trypanosoma brucei rhodesiense; test: Antiprotozoal activity against patient derived Trypanosoma brucei rhodesiense STIB 900 bloodstream form after 70 hrs by Alamar Blue assay; type: functional, organism-based; conditions: STIB 900, 70 h

SMILES	inhibition [1] [%]	inhibition [2] [%]	inhibition [3] [%]	inhibition [4] [%]	IC50 [5] [nM]	K [6] [M⁻¹ s⁻¹]	K [8] [M⁻¹ s⁻¹]	K [9] [M⁻¹ s⁻¹]	inhibition [10] [%]	K [12] [M⁻¹ s⁻¹]	IC50 [14] [nM]	IC50 [15] [nM]	IC50 [16] [nM]	other results
CCOC(=O)/C=C/[C@H](O)[C@H](CCc1ccccc1)C(=O)N[C@@H](Cc1ccccc1)C(=O)OC	0	9	0	4	–	–	–	–	–	–	–	–	–	–
CCOC(=O)/C=C/C(=O)[C@H](C)NC(=O)[C@H](CC(C)C)NC(=O)OCc1ccccc1	100	98	99	99	500	9800	14400	85500	99	14200	–	–	–	K [7]: 12000 M⁻¹ s⁻¹; IC50 [11]: 1200 nM
CCOC(=O)/C=C/[C@@H](O)[C@H](CCc1ccccc1)NC(=O)[C@H](Cc1ccccc1)NC(=O)OCc1ccccc1	36	41	57	63	–	1100	–	772 to 800	18	3200 to 3210	–	–	–	K [7]: 557 M⁻¹ s⁻¹; IC50 [11]: 34400 nM
O=C(Cn1ccnc1[N+](=O)[O-])NCc1ccccc1 [BENZNIDAZOLE]	–	–	–	–	–	–	–	–	–	–	–	–	–	IC50 [13]: 0.5 µg/mL
CCOC(=O)/C=C/[C@@H](O)[C@H](C)NC(=O)[C@H](Cc1ccccc1)NC(=O)OCc1ccccc1	26	41	80	63	–	828	–	–	30	11000	15100	–	–	K [7]: 2700 M⁻¹ s⁻¹; IC50 [11]: 26800 nM
CCOC(=O)/C=C/[C@H](O)[C@H](CCc1ccccc1)NC(=O)[C@H](Cc1ccccc1)NC(=O)OCc1ccccc1	35	22	58	32	47000	77	–	14	37	–	–	52600	–	–
CCOC(=O)/C=C/[C@@H](O)[C@H](CCc1ccccc1)NC(=O)[C@H](Cc1ccccc1)NC(=O)N1CCOCC1	100	–	98	99	–	1900	3600	4190 to 4200	95	36700	–	–	–	–
CCOC(=O)/C=C/C(=O)[C@H](CC(C)C)NC(=O)[C@H](CC(C)C)NC(=O)N1CCOCC1	100	–	100	100	90	52200	10600	49500	100	324000	110	90	200	–
CCOC(=O)/C=C/C(=O)[C@H](CCc1ccccc1)NC(=O)[C@H](CC(C)C)NC(=O)N1CCOCC1	100	–	100	100	210	19600	5600	31400	–	120000	140	140	340	IC50 [17]: 17700 nM; viability at 24 h, 1 µM [18]: 100%
CCOC(=O)/C=C/C(=O)[C@H](CCc1ccccc1)NC(=O)[C@H](Cc1ccccc1)NC(=O)N1CCOCC1	100	–	100	100	180	28500	23400	97000	100	142000	150	70	300	IC50 [17]: 6810 nM; inhibition [19]: Active; inhibition [20]: Active; inhibition [21]: Active; viability at 24 h, 1 µM [18]: 100%
CCOC(=O)/C=C/C(=O)[C@H](CC(C)C)NC(=O)[C@H](Cc1ccccc1)NC(=O)OCc1ccccc1	100	–	100	100	10	759000	517000	138000	100	1.61e+06	20	50	20	IC50 [17]: 14900 nM; viability at 24 h, 1 µM [18]: 100%
CCOC(=O)/C=C/[C@H](O)[C@H](CCc1ccccc1)C(=O)N[C@@H](CC(C)C)C(=O)OC	0	3	0	1	–	–	–	–	–	–	–	–	–	–
CCOC(=O)/C=C/C(=O)[C@H](CCc1ccccc1)NC(=O)[C@H](CC(C)C)NC(=O)OCc1ccccc1	100	98	100	98	260	29900	60800	42400	100	116000	–	–	80	IC50 [17]: 1610 nM; IC50 [22]: 90 nM; K [7]: 6000 M⁻¹ s⁻¹; IC50 [11]: 580 nM; IC50 [13]: 7140 nM; viability at 24 h, 1 µM [18]: 100%; IC50 [23]: 2320 nM
O=C(O)/C=C/[C@@H](O)[C@H](CCc1ccccc1)NC(=O)[C@H](Cc1ccccc1)NC(=O)OCc1ccccc1	15	24	47	24	–	882	–	–	12	–	–	–	–	K [7]: 29 M⁻¹ s⁻¹; IC50 [11]: 75000 nM
CCOC(=O)/C=C/C(=O)[C@H](C)NC(=O)[C@H](Cc1ccccc1)NC(=O)OCc1ccccc1	100	99	100	100	80	197000	140000	47000	100	6500	–	–	300	K [7]: 28300 M⁻¹ s⁻¹; IC50 [11]: 190 nM
CCOC(=O)/C=C/C(=O)[C@@H](CC(C)C)NC(=O)[C@H](Cc1ccccc1)NC(=O)OCc1ccccc1	100	–	100	100	10	704000	312000	117000	100	1.53e+06	30	60	20	–
O=C(/C=C/[C@@H](O)[C@H](CCc1ccccc1)NC(=O)[C@H](Cc1ccccc1)NC(=O)OCc1ccccc1)NCc1ccccc1	9	–	17	1	–	–	–	–	41	–	–	–	–	–
CCOC(=O)/C=C/C(=O)[C@@H](CCc1ccccc1)NC(=O)[C@H](Cc1ccccc1)NC(=O)N1CCOCC1	99	–	100	99	> 2000	–	22000	108000	99	62400	150	80	330	inhibition [19]: Active; inhibition [20]: Active; inhibition [21]: Active
CCOC(=O)/C=C/[C@H](O)[C@H](CCc1ccccc1)C(=O)N[C@@H](CC(C)C)C(=O)OCc1ccccc1	17	5	0	2	–	–	–	–	–	–	–	–	–	–
CCOC(=O)/C=C/[C@@H](O)[C@H](CCc1ccccc1)NC(=O)[C@H](CC(C)C)NC(=O)OCc1ccccc1	10	11	14	0	–	–	–	–	9	–	–	–	–	–
CCOC(=O)/C=C/[C@H](O)[C@H](CCc1ccccc1)C(=O)N[C@@H](Cc1ccccc1)C(=O)OCc1ccccc1	25	5	0	6	–	–	–	–	–	–	–	–	–	–

— ChEMBL document CHEMBL4229471, “Antiprotozoal and cysteine proteases inhibitory activity of dipeptidyl enoates” (Bioorg Med Chem, 2018)
